These are literature values, as cited in US8940275B2, “Nanoparticles based on gadolinium coordination polymers as highly sensitive T1 MRI contrast agents” (Kent State University, priority 2010, dated 2015).

For one data set the following is noted: clinical MRI contrast agents; 1.5 T.
Turning to `CCOc1ccc(CC(CN(CCN(CC(=O)[O-])CC(=O)[O-])CC(=O)[O-])N(CC(=O)[O-])CC(=O)[O-])cc1.[Gd+3].[Na+].[Na+]` (stereo not drawn) [Primovist], the R1 (typical relaxivity value) is 7.3 mM⁻¹ s⁻¹. Take `CNC[C@H](O)[C@@H](O)[C@H](O)[C@H](O)CO.CNC[C@H](O)[C@@H](O)[C@H](O)[C@H](O)CO.O=C([O-])CN(CCN(CC(=O)[O-])CC(=O)O)CCN(CC(=O)[O-])CC(=O)O.[Gd+3]` [Magnevist ®]: the R1 (typical relaxivity value) was 4.3 mM⁻¹ s⁻¹. For the molecule `CNC(=O)CN(CCN(CCN(CC(=O)[O-])CC(=O)NC)CC(=O)[O-])CC(=O)[O-].[Gd+3]` [Omniscan ®], the R1 (typical relaxivity value) is 4.6 mM⁻¹ s⁻¹.

Consider `CC(O)CN1CCN(CC(=O)[O-])CCN(CC(=O)[O-])CCN(CC(=O)[O-])CC1.[Gd+3]` (stereo not drawn) [ProHance ®], for which the R1 (typical relaxivity value) was 4.4 mM⁻¹ s⁻¹. For the molecule `COCCNC(=O)CN(CCN(CCN(CC(=O)[O-])CC(=O)NCCOC)CC(=O)[O-])CC(=O)[O-].[Gd+3]` [OptiMARK], the R1 (typical relaxivity value) is 5.2 mM⁻¹ s⁻¹. Regarding `CNC[C@H](O)[C@@H](O)[C@H](O)[C@H](O)CO.O=C([O-])CN1CCN(CC(=O)[O-])CCN(CC(=O)O)CCN(CC(=O)[O-])CC1.[Gd+3]` [Dotarem ®], the R1 (typical relaxivity value) is 4.2 mM⁻¹ s⁻¹. Regarding `O=C([O-])CN1CCN(CC(=O)[O-])CCN([C@H](CO)[C@H](O)CO)CCN(CC(=O)[O-])CC1.[Gd+3]` (racemic) [Gadovist ®], the R1 (typical relaxivity value) was 5.3 mM⁻¹ s⁻¹. Regarding `CNC[C@H](O)[C@@H](O)[C@H](O)[C@H](O)CO.CNC[C@H](O)[C@@H](O)[C@H](O)[C@H](O)CO.O=C([O-])CN(CCN(CC(=O)[O-])CC(=O)O)CCN(CC(=O)O)C(COCc1ccccc1)C(=O)[O-].[Gd+3]` (stereo not drawn) [MultiHance], the R1 (typical relaxivity value) is 6.7 mM⁻¹ s⁻¹.

For another data set the following is noted: commercial agents, field not given.
Turning to `CNC[C@H](O)[C@@H](O)[C@H](O)[C@H](O)CO.CNC[C@H](O)[C@@H](O)[C@H](O)[C@H](O)CO.O=C([O-])CN(CCN(CC(=O)[O-])CC(=O)O)CCN(CC(=O)[O-])CC(=O)O.[Gd+3]` [Magnevist ®], the r1 is 4.3 mM⁻¹ s⁻¹.
